Where two headings read alike, the source gives them in different places.
What was measured:
[1] = tested on: xenografts of a human meningioma cell line (CH-157MN); assay: Static PET/CT study: SUVmax and SUV ratios in mice bearing meningioma xenografts; assay type: in vivo, NUDE NU/NU mice; details: for T/L SUV ratio (tumor-to-liver): SUVmax of tumor normalized to SUVmax of liver, p<0.001; for Visualization of flank tumors in PET/CT images: comparative PET/CT images of the same animal
Experimental: (§1) Animals were scanned on a small-animal PET scanner (ARGUS PET-CT, SEDECAL, Madrid, Spain) under anesthesia (isoflurane, 3% induction and 1.5% maintenance in 100% O2). Imaging was performed 7–28 days after tumor cell inoculation. […] Half of the animals imaged with ^68Ga-DOTATOC were also imaged with the other two radiotracers in alternate days with respect to ^68Ga-DOTATOC (Figure 1).
(§2) Frames corresponding to the last 60 minutes of the study were summed to form a static image. Images were reconstructed using the 2D–OSEM (Ordered Subset Expectation Maximization) algorithm (16 subsets and two iterations), which yields a spatial resolution for this scanner of 1.45 mm Full Width at Half Maximum (FWHM), with a voxel size of 0.3875×0.3875×0.7750 mm^3. The energy window was 400–700 keV. Decay and deadtime corrections were applied.
Three 3D ROIs were drawn manually on the CT image, one for each tissue of interest (tumor, liver, and muscle), plus a background ROI outside the body area. Since the CT images are intrinsically registered to the PET images, the ROIs drawn on the CT image were directly overlaid on the PET image after correction for the different image sizes. The assessment of PET data included calculation of the maximum standard uptake value (SUVmax) on the static tomographic study and computation of the volume of distribution (Vt) from the dynamic study.
Tumor, muscle, and liver SUVmax values at 30–90 minutes post-injection were recorded. […] The SUVmax of the tumor lesions was normalized to the SUVmax of the liver (T/L) and muscle (T/M). The T/L and T/M SUV ratios were considered markers of the ability of the radiopharmaceutical to localize in the tumor.

SSTR2 = details: cited from earlier work
[2] = design: method as in PMID 12937948; details: comparison between tracers; cited from earlier work
SSTR3 = details: cited from earlier work
SSTR5 = details: cited from earlier work
[3] = tested on: xenografts of a human meningioma cell line (CH-157MN); assay: Dynamic PET study: volume of distribution (Vt) by Logan graphical analysis; assay type: in vivo, NUDE NU/NU mice; details: two-tissue reversible compartmental model, comparison between radiotracers
Experimental: as §1, §2
Three 3D ROIs were drawn manually on the CT image, one for each tissue of interest (tumor, liver, and muscle), plus a background ROI outside the body area. Since the CT images are intrinsically registered to the PET images, the ROIs drawn on the CT image were directly overlaid on the PET image after correction for the different image sizes. […]
Vt was calculated from dynamic PET data using standard Logan graphical analysis for a two-tissue reversible compartmental model. […]

SSTR in CH-157MN cells = assay: Homologous competitive binding with [^125I]-somatostatin-28 in CH-157MN meningioma cells; design: species or system human; details: 0.5 nM [^125I]-somatostatin-28, 37°C, 1 hour, mean ± SEM, three independent experiments in triplicate, read-out: IC50 (concentration of cold ligand that reduces specific binding of radioligand by 50%)
Experimental: Affinity was determined from three independent experiments performed in triplicate and was measured by means of a homologous competitive binding experiment according to Motulsky and Neubig. The IC50 (concentration of cold ligand [somatostatin-28] that reduces specific binding of radioligand by 50%) was determined by competitive binding assays with [^125I]-somatostatin-28 (Amersham Pharmacia Biotech, UK) in CH-157MN meningioma cells. Briefly, cells were incubated into a 24-well cell culture plate (2–2.5×10^5 cells/well) at 37°C for 1 hour in a CO2 incubator with 0.5 nM [^125I]-somatostatin-28 (Amersham Pharmacia Biotech, UK) in the presence of increasing concentrations of somatostatin-28 (0.1 nM-10 µM) in 0.25 ml of binding media (DMEM, 2 mM L-glutamine, 50 units/ml penicillin and 50 µg/ml streptomycin). The reaction medium was aspirated after incubation. Cells were rinsed with 0.5 ml of ice-cold PBS twice and lysed in 0.5 ml of 1 N NaOH for five minutes. The activity in cells was measured in a Packard Cobra II gamma counter. The competitive binding curves were obtained by plotting the [^125I]-somatostatin-28 bound to cells against concentrations of cold ligand. IC50 and maximum numbers of binding sites (Bmax) were calculated using Origin 7.5 software (OriginLab Corporation, Northampton, Massachusetts, USA).

[4] = comparison between radiotracers

^68Ga-DOTA -Tyr^3-octreotide [^68Ga-DOTATOC]
T/L SUV ratio (tumor-to-liver) [1, 4]: No differences were found between ^68Ga-DOTATATE and ^68Ga-DOTATOC | Visualization of flank tumors in PET/CT images [1]: better visualized | Affinity for SSTR2 (SSTR2): high affinity

^68Ga-DOTA-Nal^3-octreotide [^68Ga-DOTANOC]
Affinity for SSTR2 (SSTR2; comparison with ^68Ga-DOTATOC): higher affinity for SSTR2 than ^68Ga-DOTATOC | Lipophilicity [2]: more lipophilic than ^68Ga-DOTATATE and ^68Ga-DOTATOC | Affinity for SSTR3 (SSTR3): has affinity for SSTR3 and SSTR5 | Affinity for SSTR5 (SSTR5): has affinity for SSTR3 and SSTR5

^68Ga-DOTA-Tyr^3-octreotate [^68Ga-DOTATATE]
T/L SUV ratio (tumor-to-liver) [1, 4]: No differences were found between ^68Ga-DOTATATE and ^68Ga-DOTATOC | T/M SUV ratio (tumor-to-muscle) ([1]; SUVmax of tumor normalized to SUVmax of muscle, comparison between radiotracers): higher than that of ^68Ga-DOTATOC (p<0.01) and ^68Ga-DOTANOC (p<0.05) | Visualization of flank tumors in PET/CT images [1]: better visualized | Vt tumor [3]: higher with ^68Ga-DOTATATE than with ^68Ga-DOTANOC and relatively similar to that of ^68Ga-DOTATOC | Affinity for SSTR2 (SSTR2): high affinity

somatostatin-28
IC50 (SSTR in CH-157MN cells): 0.0637 ± 0.0323 µM

From publication PMC4219730 (PLoS ONE, 2014)
